One block for each compound: values may come before it.
Test system: 171881-019-R-J1-PDC tumor spheroid viability
Test: Anticancer human tumor 171881-019-R-J1-PDC patient-derived invasive breast carcinoma cell line growth inhibition [PI3K]
Settings: spheroids with HUVEC and MSC; for IC50: curve of first compound; for viability, T/C: stronger effect = lower value
In short: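 Tumor cells grown as multi-cell spheroids with HUVEC endothelial cells and MSC fibroblast-like stroma were treated with targeted agents combined with inavolisib, alpelisib, duvelisib or copanlisib. Doses fell in half-log steps from near clinical Cmax, else from 10 microM. Viability was measured.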
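Further: spheroids exposed to compound for 7 days before viability read.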
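Wherever viability, T/C is given: 100% = DMSO vehicle-treated spheroids.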

IC50 (second compound 0.0316 µM): > 10000 nM
IC50 (second compound 0.1 µM): 9460 nM
IC50 (second compound 0.316 µM): 8250 nM
IC50 (second compound 1 µM): 7020 nM
IC50 (second compound 3.16 µM): 3020 nM
IC50 (second compound 10 µM): 666 nM
SMILES: C[C@@H](NC(=O)c1ncnc(N)c1Cl)c1ncc(C(=O)Nc2cc(C(F)(F)F)c(Cl)cn2)s1 + CC(Nc1ncnc2nc[nH]c12)c1cc2cccc(Cl)c2c(=O)n1-c1ccccc1
viability, T/C (second compound 0.0316 µM, first compound 0.0316 µM): 76.3%
viability, T/C (second compound 0.0316 µM, first compound 0.1 µM): 81.8%
viability, T/C (second compound 0.0316 µM, first compound 0.316 µM): 86.3%
viability, T/C (second compound 0.0316 µM, first compound 1 µM): 104%
viability, T/C (second compound 0.0316 µM, first compound 3.16 µM): 79%
viability, T/C (second compound 0.0316 µM, first compound 10 µM): 51.3%
viability, T/C (second compound 0.1 µM, first compound 0.0316 µM): 92.4%
viability, T/C (second compound 0.1 µM, first compound 0.1 µM): 96.4%
viability, T/C (second compound 0.1 µM, first compound 0.316 µM): 88.2%
viability, T/C (second compound 0.1 µM, first compound 1 µM): 93.4%
viability, T/C (second compound 0.1 µM, first compound 3.16 µM): 76.5%
viability, T/C (second compound 0.1 µM, first compound 10 µM): 48.5%
viability, T/C (second compound 0.316 µM, first compound 0.0316 µM): 92.7%
viability, T/C (second compound 0.316 µM, first compound 0.1 µM): 78%
viability, T/C (second compound 0.316 µM, first compound 0.316 µM): 93.2%
viability, T/C (second compound 0.316 µM, first compound 1 µM): 83.2%
viability, T/C (second compound 0.316 µM, first compound 3.16 µM): 79.4%
viability, T/C (second compound 0.316 µM, first compound 10 µM): 44.1%
viability, T/C (second compound 1 µM, first compound 0.0316 µM): 99.6%
viability, T/C (second compound 1 µM, first compound 0.1 µM): 92.8%
viability, T/C (second compound 1 µM, first compound 0.316 µM): 96.4%
viability, T/C (second compound 1 µM, first compound 1 µM): 93.8%
viability, T/C (second compound 1 µM, first compound 3.16 µM): 69.4%
viability, T/C (second compound 1 µM, first compound 10 µM): 41.4%
viability, T/C (second compound 3.16 µM, first compound 0.0316 µM): 90.1%
viability, T/C (second compound 3.16 µM, first compound 0.1 µM): 74.8%
viability, T/C (second compound 3.16 µM, first compound 0.316 µM): 78%
viability, T/C (second compound 3.16 µM, first compound 1 µM): 77.9%
viability, T/C (second compound 3.16 µM, first compound 3.16 µM): 48.8%
viability, T/C (second compound 3.16 µM, first compound 10 µM): 30%
viability, T/C (second compound 10 µM, first compound 0.0316 µM): 63.8%
viability, T/C (second compound 10 µM, first compound 0.1 µM): 60.8%
viability, T/C (second compound 10 µM, first compound 0.316 µM): 54.6%
viability, T/C (second compound 10 µM, first compound 1 µM): 48.5%
viability, T/C (second compound 10 µM, first compound 3.16 µM): 33.4%
viability, T/C (second compound 10 µM, first compound 10 µM): 21.2%

IC50 (second compound 0.0316 µM): 437 nM
IC50 (second compound 0.1 µM): 105 nM
IC50 (second compound 0.316 µM): < 9.49 nM
IC50 (second compound 1 µM): < 9.49 nM
IC50 (second compound 3.16 µM): < 9.49 nM
IC50 (second compound 10 µM): < 9.49 nM
SMILES: Cn1cnc2c(F)c(Nc3ccc(Br)cc3Cl)c(C(=O)NOCCO)cc21 + Cc1nc(NC(=O)N2CCCC2C(N)=O)sc1-c1ccnc(C(C)(C)C(F)(F)F)c1
viability, T/C (second compound 0.0316 µM, first compound 0.00949 µM): 92.1%
viability, T/C (second compound 0.0316 µM, first compound 0.03 µM): 78.9%
viability, T/C (second compound 0.0316 µM, first compound 0.0949 µM): 71.5%
viability, T/C (second compound 0.0316 µM, first compound 0.3 µM): 58.5%
viability, T/C (second compound 0.0316 µM, first compound 0.949 µM): 35.9%
viability, T/C (second compound 0.0316 µM, first compound 3 µM): 16%
viability, T/C (second compound 0.1 µM, first compound 0.00949 µM): 73.9%
viability, T/C (second compound 0.1 µM, first compound 0.03 µM): 59%
viability, T/C (second compound 0.1 µM, first compound 0.0949 µM): 50.3%
viability, T/C (second compound 0.1 µM, first compound 0.3 µM): 41.8%
viability, T/C (second compound 0.1 µM, first compound 0.949 µM): 26.8%
viability, T/C (second compound 0.1 µM, first compound 3 µM): 12.4%
viability, T/C (second compound 0.316 µM, first compound 0.00949 µM): 45.7%
viability, T/C (second compound 0.316 µM, first compound 0.03 µM): 38.8%
viability, T/C (second compound 0.316 µM, first compound 0.0949 µM): 33.3%
viability, T/C (second compound 0.316 µM, first compound 0.3 µM): 28.6%
viability, T/C (second compound 0.316 µM, first compound 0.949 µM): 15.1%
viability, T/C (second compound 0.316 µM, first compound 3 µM): 5.7%
viability, T/C (second compound 1 µM, first compound 0.00949 µM): 28.8%
viability, T/C (second compound 1 µM, first compound 0.03 µM): 23.3%
viability, T/C (second compound 1 µM, first compound 0.0949 µM): 19.9%
viability, T/C (second compound 1 µM, first compound 0.3 µM): 15.1%
viability, T/C (second compound 1 µM, first compound 0.949 µM): 6.73%
viability, T/C (second compound 1 µM, first compound 3 µM): 2.34%
viability, T/C (second compound 3.16 µM, first compound 0.00949 µM): 11.5%
viability, T/C (second compound 3.16 µM, first compound 0.03 µM): 9.26%
viability, T/C (second compound 3.16 µM, first compound 0.0949 µM): 7.86%
viability, T/C (second compound 3.16 µM, first compound 0.3 µM): 5.01%
viability, T/C (second compound 3.16 µM, first compound 0.949 µM): 1.92%
viability, T/C (second compound 3.16 µM, first compound 3 µM): 0.87%
viability, T/C (second compound 10 µM, first compound 0.00949 µM): 2.26%
viability, T/C (second compound 10 µM, first compound 0.03 µM): 2.27%
viability, T/C (second compound 10 µM, first compound 0.0949 µM): 1.71%
viability, T/C (second compound 10 µM, first compound 0.3 µM): 0.92%
viability, T/C (second compound 10 µM, first compound 0.949 µM): 0.78%
viability, T/C (second compound 10 µM, first compound 3 µM): 0.48%

— PubChem BioAssay AID1963986 (Molecular Pharmacology Branch, DTP, NCI, 2024)
